In patent US4166861A, “Pharmacologically active polyphenolic substances” (Inverni della Beffa S.p.A., priority 1976, dated 1979):
Like-named read-outs stand apart in the source and are kept apart here.

Columns and labels:
[1] = Choleretic activity in the rat, intraperitoneal administration (bile volume and dry residue); type: in vivo, Sprague Dawley rats; conditions: for increase of the dry residue of the bile in comparison with the basal values / increase of the volume of the bile in comparison with the basal values / Bile Volume 3 Hours after Treatment / Dry Residue 3 Hours after Treatment: 100 mg/kg i.p.; for increase of the dry residue of the bile in comparison with the basal values / increase of the volume of the bile in comparison with the basal values: measured from 1 hour to 4 hours after administration; for Bile Volume 3 Hours after Treatment / Dry Residue 3 Hours after Treatment: awake rat; for choleretic action (in words): Table 2, 100 mg/kg i.p., bile volume and dry residue three hours after treatment
Description: (§1) The choleretic activity was determined in accordance with the technique described by R. Lambert in "Surgery of the Digestive System in the Rat" 1965. Sprague Dawley rats of mean weight of 230 g. were used. The products were injected intraperitoneally at the dosage of 100 mg/kg., the volume of the bile and the corresponding dry residue being measured then from 1 hour to 4 hours after administration. […] These increases are significant.
2. Choleretic Activity--Intra-Peritoneal Administration
The choleretic activities of catechin and catechin pentacetyl ferulate were determined in the manner described in paragraph A above.

[2] = Choleretic activity in the rat, oral administration (bile volume and dry residue); type: in vivo, Sprague Dawley rats; conditions: 200 mg/kg per os; for Bile Volume 2 Hours after Treatment / Dry Residue 2 Hours after Treatment / Bile Volume 3 Hours after Treatment / Dry Residue 3 Hours after Treatment: awake rat
Description: as §1
1. Choleretic Activity--Oral Administration
The choleretic activities of catechin and epicatechin were determined in the manner described in paragraph A above except that the substances under test were administered per os at the rate of 200 mg./kg.

[3] = Olive oil-induced hyperlipaemia in the rat (plasma triglycerides); type: in vivo, Sprague Dawley rats; conditions: for diminution of the concentration of triglycerides in the plasma in comparison with the controls: 100 mg/kg orally, two treatments, 2 h before and 2 h after olive oil, significant; for Triglycerides: 100 mg/kg per os, controls (water) 171.5±18.6; for hypolipaemic effect (in words): Table 3, 100 mg/kg per os
Description: The hyperlipaemic activity was determined in Sprague Dawley rats of mean weight of 160 g., in which hyperlipaemia was induced by means of administration of 20 ml./kg. of olive oil orally in animals which had been fasting for 16 hours. Two treatments were effected with the products under examination (upon groups of 18 animals), the first two hours before the olive oil, the second two hours afterwards. The doses were administered orally and were equal to 100 mg./kg.
3. Hypolipaemic Effect--Effect on Olive Oil-Induced Hyperlipaemia
The hypolipaemic activity of catechin and epicatechin was determined in the manner described in paragraph B1 above.

Toxicity (LD50) = type: in vivo; conditions: for LD50: in vivo
[4] = Lipidic metabolism in the normally fed rat (plasma free fatty acids); type: in vivo, Sprague Dawley rats; conditions: single dose 100 mg/kg i.p., after two hours; normolipaemic rats; significant
Description: The tests were conducted on Sprague Dawley rats of mean weight of 200 g. which were normolipaemic and to which the products had been administered intraperitoneally in a single dose of 100 mg./kg. After two hours the animals were slaughtered and the free fatty acids in the plasma were measured.

[5] = Triton hyperlipaemia in the rat (plasma cholesterol and triglycerides); type: in vivo, Sprague Dawley rats; conditions: 100 mg/kg i.p. (50 mg/kg immediately after Triton, 50 mg/kg after 4 hours); significant
Description: The products under examination were injected intraperitoneally at the dosage of 100 mg./kg. of which 50 mg./kg. immediately after the Triton and 50 mg./kg. after 4 hours. After a further 4 hours the animals were slaughtered and the cholesterol and triglycerides in the plasma were measured.

[6] = epicatechin compared with catechin

Row | Compound | increase of the dry residue of the bile in comparison with the basal values [1] [%] | increase of the volume of the bile in comparison with the basal values [1] [%] | Bile Volume 2 Hours after Treatment [2] [mL] | Dry Residue 2 Hours after Treatment [2] [mg] | Bile Volume 3 Hours after Treatment [2] [mL] | Dry Residue 3 Hours after Treatment [2] [mg] | diminution of the concentration of triglycerides in the plasma in comparison with the controls [3] [%] | Triglycerides [3] [mg/100 ml] | hypolipaemic effect (in words) [3] | Bile Volume 3 Hours after Treatment [1] [mL] | Dry Residue 3 Hours after Treatment [1] [mg] | choleretic action (in words) [1] | diminution of the concentration of free fatty acids in the plasma in comparison with the controls [4] [%] | diminution of the concentration of cholesterol in the plasma in comparison with the controls [5] [%] | diminution of the concentration of triglycerides in the plasma in comparison with the controls [5] [%] | further results
1 | Oc1cc(O)c2c(c1)O[C@H](c1ccc(O)c(O)c1)[C@H](O)C2 [Epicatechin, epicatechin] | 35 | 38 | 1.02 ± 0.07 | 18.1 ± 2.0 | 0.89 ± 0.09 | 16.5 ± 2.13 | 42 | 98.6±12.0 | marked hypolipaemic effect |  |  |  |  |  |  | choleretic activity (in words) [2, 6]: markedly higher choleretic activity than catechin; duration of choleretic effect (in words) [2, 6]: the choleretic effect is of longer duration
2 | Oc1cc(O)c2c(c1)O[C@H](c1ccc(O)c(O)c1)[C@@H](O)C2 [Catechin, catechin, reference compound] |  |  | 0.84 ± 0.02 | 18.2 ± 0.37 | 0.81 ± 0.03 | 16.6 ± 0.81 |  | 120.7±17.6 | no statistically significant hypolipaemic effect | 0.62 ± 0.08 | 10.0 ± 4.20 | no statistically significant choleretic effect |  |  |  | LD50 (Toxicity (LD50); ip, read-out: LD50 i.p.): > 1000 mg/kg; LD50 (Toxicity (LD50); po, per os, read-out: LD50 per os): > 2000 mg/kg
3 | CC1(C)Oc2ccc([C@H]3Oc4cc(O)cc(O)c4C[C@@H]3O)cc2O1 [catechin acetonide] |  |  |  |  |  |  |  |  |  |  |  |  | 25.8 |  |  | 
4 | COc1cc(C=CC(=O)Oc2cc(OC(=O)C=Cc3ccc(OC(C)=O)c(OC)c3)c3c(c2)O[C@H](c2ccc(OC(=O)C=Cc4ccc(OC(C)=O)c(OC)c4)c(OC(=O)C=Cc4ccc(OC(C)=O)c(OC)c4)c2)[C@@H](OC(=O)C=Cc2ccc(OC(C)=O)c(OC)c2)C3)ccc1OC(C)=O [Catechin pentacetylferulate, catechin peracetylferulate] | 36 | 64 |  |  |  |  |  |  |  | 0.88 ± 0.05 | 15.6 ± 0.60 | marked choleretic action |  |  |  | LD50 i.p. (Toxicity (LD50); i.p.): > 1000 mg/kg
5 | CC(=O)Oc1cc(OC(C)=O)c2c(c1)O[C@H](c1ccc(OC(C)=O)c(OC(C)=O)c1)[C@@H](OC(C)=O)C2 [Example 4, Catechin pentaacetate] |  |  |  |  |  |  |  |  |  |  |  |  |  | 16.3 | 23.1 | 
6 | O=C(Oc1cc(OC(=O)c2cccnc2)c2c(c1)O[C@H](c1ccc(OC(=O)c3cccnc3)c(OC(=O)c3cccnc3)c1)[C@@H](OC(=O)c1cccnc1)C2)c1cccnc1 [pernicotinylcatechin] |  |  |  |  |  |  | 27 |  |  |  |  |  | 13.1 | 21.1 | 28.7 | 
